Article PMC2551328 (Biochemistry, 2008)

Experiments:
Assay type in all cases: biochemical
M.tb PGDH G316V = M.tb PGDH G316V (Mycobacterium tuberculosis, UniProt P9WNX3, G315V)
M.tb PGDH G317V = M.tb PGDH G317V (Mycobacterium tuberculosis, UniProt P9WNX3, G316V)
M.tb PGDH G318V = M.tb PGDH G318V (Mycobacterium tuberculosis, UniProt P9WNX3, G317V)
M.tb PGDH G316, 317V = M.tb PGDH G316, 317V (Mycobacterium tuberculosis, UniProt P9WNX3, G315V/G316V)
M.tb PGDH G317, 318V = M.tb PGDH G317, 318V (Mycobacterium tuberculosis, UniProt P9WNX3, G316V/G317V)
M.tb PGDH G316, 318V = M.tb PGDH G316, 318V (Mycobacterium tuberculosis, UniProt P9WNX3, G315V/G317V)
M.tb PGDH Y461A = M.tb PGDH Y461A (Mycobacterium tuberculosis, UniProt P9WNX3, Y460A)
M.tb PGDH D463A = M.tb PGDH D463A (Mycobacterium tuberculosis, UniProt P9WNX3, D462A)
M.tb PGDH N481A = M.tb PGDH N481A (Mycobacterium tuberculosis, UniProt P9WNX3, N480A)

N[C@@H](CO)C(=O)O [L-serine, reference compound]
Hill Coefficient (M.tb PGDH G316V): 1.6 ± 0.1 | Hill Coefficient (M.tb PGDH G317V): 1.5 ± 0.1 | Hill Coefficient (M.tb PGDH G318V): 2.5 ± 0.1 | decrease in sensitivity to serine (M.tb PGDH G318V): about 5 fold | Hill Coefficient (M.tb PGDH G316, 317V): 1.7 ± 0.1 | Hill Coefficient (M.tb PGDH G317, 318V): 1.9 ± 0.1 | Hill Coefficient (M.tb PGDH G316, 318V): 1.9 ± 0.1 | Hill Coefficient (M.tb PGDH Y461A): 1.7 ± 0.1 | Hill Coefficient (M.tb PGDH D463A): 1.4 ± 0.1

O=C(O)C(=O)COP(=O)(O)O [HPAP, hydroxypyruvic acid phosphate]
Ki (M.tb PGDH G316V): 2230 ± 190 µM | Km (M.tb PGDH G316V): 114 ± 4 µM | kcat (M.tb PGDH G316V): 1111 ± 30 s⁻¹ | Ki (M.tb PGDH G317V): 1110 ± 148 µM | Km (M.tb PGDH G317V): 165 ± 9 µM | kcat (M.tb PGDH G317V): 2111 ± 119 s⁻¹ | Ki (M.tb PGDH G318V): 1920 ± 437 µM | Km (M.tb PGDH G318V): 203 ± 23 µM | kcat (M.tb PGDH G318V): 2349 ± 177 s⁻¹ | Ki (M.tb PGDH G316, 317V): 380 ± 45 µM | Km (M.tb PGDH G316, 317V): 610 ± 95 µM | kcat (M.tb PGDH G316, 317V): 2805 ± 310 s⁻¹ | Ki (M.tb PGDH G317, 318V): 1620 ± 402 µM | Km (M.tb PGDH G317, 318V): 220 ± 43 µM | kcat (M.tb PGDH G317, 318V): 605 ± 27 s⁻¹ | Ki (M.tb PGDH G316, 318V): 220 ± 35 µM | Km (M.tb PGDH G316, 318V): 470 ± 43 µM | kcat (M.tb PGDH G316, 318V): 2827 ± 197 s⁻¹ | Ki (M.tb PGDH Y461A): 420 ± 65 µM | Km (M.tb PGDH Y461A): 270 ± 60 µM | kcat (M.tb PGDH Y461A): 2754 ± 300 s⁻¹ | Ki (M.tb PGDH D463A): 1090 ± 165 µM | Km (M.tb PGDH D463A): 140 ± 10 µM | kcat (M.tb PGDH D463A): 720 ± 89 s⁻¹ | Ki (M.tb PGDH N481A): 2320 ± 337 µM | Km (M.tb PGDH N481A): 120 ± 15 µM | kcat (M.tb PGDH N481A): 603 ± 77 s⁻¹
